From ChEMBL document CHEMBL3593238, “Selenorhodamine photosensitizers with the Texas-red core for photodynamic therapy of cancer cells” (Bioorg Med Chem, 2015)
Active and inactive are the calls of the source. The calls are words filed in the database; no cut-off is given here.

Key:
[1] = Ratio of LD50 for dark toxicity in mouse Colon 26 cells to EC50 for photo-toxicity in mouse Colon 26 cells at 15 Jcm'-2 of continuous illumination with 630 +/- 2 nm laser light; format: cell-based; conditions: read-out: Ratio LD50/EC50
[2] = Dark toxicity in mouse Colon 26 cells expressing p-glycoprotein assessed as cell viability incubated for 1 hr followed by incubated for 48 hrs in fresh medium by sulforhodamine B assay; format: cell-based; conditions: read-out: LD50
Colon 26 [3] = test: Photo-toxicity in mouse Colon 26 cells assessed as cell viability at 0.5 Jcm'-2 of continuous illumination with 630 +/- 2 nm laser light incubated for 48 hrs by sulforhodamine B assay; format: functional, cell-based; conditions: for EC50: Colon 26, 48 h
Colon 26 [4] = test: Photo-toxicity in mouse Colon 26 cells assessed as cell viability at 1 Jcm'-2 of continuous illumination with 630 +/- 2 nm laser light incubated for 48 hrs by sulforhodamine B assay; format: functional, cell-based; conditions: for EC50: Colon 26, 48 h
[5] = n-Octanol-water partition coefficient, log P of the compound at pH 7.4 by shake flask method; format: physicochemical
Colon 26 [6] = test: Drug uptake in mouse Colon 26 cells expressing p-glycoprotein at 2 x 10^-7 M after 15 mins by flow cytometry in absence of verapamil; format: ADME, cell-based; conditions: colon 26, 0.25 h, 0.2 µM
Colon 26 [7] = test: Photo-toxicity in mouse Colon 26 cells assessed as cell viability up to 5 Jcm'-2 of continuous illumination with 630 +/- 2 nm laser light incubated for 48 hrs by sulforhodamine B assay; format: functional, cell-based; conditions: Colon 26, 48 h
[8] = Ratio of LD50 for dark toxicity in mouse Colon 26 cells to EC50 for photo-toxicity in mouse Colon 26 cells at 1 Jcm'-2 of continuous illumination with 630 +/- 2 nm laser light; format: cell-based; conditions: read-out: Ratio LD50/EC50
[9] = Cellular uptake in mitochondria of mouse Colon 26 cells expressing p-glycoprotein using MitoTracker Green after 15 mins by flow cytometry; format: ADME; conditions: colon 26, 0.25 h
Colon 26 [10] = test: Drug uptake in mouse Colon 26 cells expressing p-glycoprotein at 2 x 10^-7 M after 15 mins by flow cytometry in presence of 1 x 10^-4 M of verapamil; format: ADME, cell-based; conditions: colon 26, 0.25 h, 0.2 µM

| SMILES | selectivity ratio [1] | CC50 at 1 h [2] | Activity (Colon 26 [3]) | Activity (Colon 26 [4]) | logD [5] | EC50 (Colon 26 [3]) | Drug uptake (Colon 26 [6]) | EC50 (Colon 26 [4]) | EC50 (Colon 26 [7]) | selectivity ratio [8] | Drug uptake [9] | fold change (FC) (Colon 26 [10]) |
| --- | --- | --- | --- | --- | --- | --- | --- | --- | --- | --- | --- | --- |
| CN(C)c1ccc(-c2cc(-c3ccc(N)cc3)[se+]c(-c3ccc(N)cc3)c2)cc1 | 3.8 |  |  |  |  |  |  |  |  |  |  |  |
| CN(C)c1ccc(-c2cc(-c3ccccc3)[se+]c(-c3ccc(N)cc3)c2)cc1 | 13 | 2.6 µM |  |  |  |  |  |  |  |  |  |  |
| CN(C)c1ccc(-c2cc(-c3ccccc3)[s+]c(-c3ccc(N)cc3)c2)cc1 |  | 0.07 µM | inactive | inactive |  |  |  |  |  |  |  |  |
| O=C(c1ccc(C2=c3cc4c5c(c3[Se]c3c2cc2c6c3CCCN6CCC2)CCC[N+]=5CCC4)s1)N1CCCCC1.[Cl-] |  | 2.24 µM |  |  | 3.71 | 0.079 µM | Active | 0.0388 µM | 0.05 µM | 58 | Active | 7.6 |
| S=C(c1ccc(C2=c3cc4c5c(c3[Se]c3c2cc2c6c3CCCN6CCC2)CCC[N+]=5CCC4)s1)N1CCCCC1.[Cl-] |  | 1.53 µM |  |  | 4.1 | 0.056 µM | Active | 0.029 µM | 0.05 µM | 53 | Active | 2.9 |
